Laboratory results reported in ChEMBL document CHEMBL1938307, “Synthesis, pharmacological evaluation and docking studies of N-(benzo[d]thiazol-2-yl)-2-(piperazin-1-yl)acetamide analogs as COX-2 inhibitors” (Bioorg Med Chem Lett, 2012).

Key:
Rattus norvegicus [1] = test: Antiinflammatory activity in Wistar rat assessed as inhibition of carrageenan-induced paw edema at 30 mg/kg after 2 hrs; format: functional
Rattus norvegicus [2] = test: Ulcerogenic effect in Wistar rat assessed as lesions in stomach area at 90 mg/kg after 6 hrs; format: toxicity, organism-based; parameters: dose 90 mg/kg; settings: in vivo
Rattus norvegicus [3] = test: Ulcerogenic effect in Wistar rat assessed as gastric bleeding at 90 mg/kg after 6 hrs; format: toxicity, organism-based, Stomach; parameters: dose 90 mg/kg; settings: in vivo

SMILES | inhibition in vivo at 30 mg/kg (Rattus norvegicus [1]) | UI (Rattus norvegicus [2]) | UI (Rattus norvegicus [3])
CCN1CCN(CC(=O)Nc2nc3ccccc3s2)CC1 | 13% | – | –
O=C(CN1CCNCC1)Nc1nc2ccccc2s1 | 41.3% | 1.24 | 1.24
O=C(CN1CCCNCC1)Nc1nc2ccccc2s1 | 8.6% | – | –
O=C(CN1CCN(c2ccccc2)CC1)Nc1nc2ccccc2s1 | 23.9% | – | –
COc1ccc2sc(NC(=O)CN3CCNCC3)nc2c1 | 2.17% | – | –
CCN1CCN(CC(=O)Nc2nc3cc(OC)ccc3s2)CC1 | 17.4% | – | –
COc1ccc2sc(NC(=O)CN3CCCNCC3)nc2c1 | 17.4% | – | –
COc1ccc2sc(NC(=O)CN3CCN(c4ccccc4)CC3)nc2c1 | 21.7% | – | –
O=C(CN1CCNCC1)Nc1nc2cc([N+](=O)[O-])ccc2s1 | 12.3% | – | –
CCN1CCN(CC(=O)Nc2nc3cc([N+](=O)[O-])ccc3s2)CC1 | 17.4% | – | –
O=C(CN1CCCNCC1)Nc1nc2cc([N+](=O)[O-])ccc2s1 | 17.4% | – | –
O=C(CN1CCN(c2ccccc2)CC1)Nc1nc2cc([N+](=O)[O-])ccc2s1 | 34.8% | 1.21 | 1.21
COc1ccc2cc([C@H](C)C(=O)O)ccc2c1 [NAPROXEN] | 71.7% | 2.5 | 2.5
CS(=O)(=O)c1ccc(C2=C(c3ccccc3)C(=O)OC2)cc1 [ROFECOXIB] | 81% | – | –
